Data: US20230131966A1, “FUNGICIDAL AMIDES” (FMC Corporation, priority 2020, published 2023)

Legend:
Assay type in all cases: in vivo
Phakopsora pachyrhizi = assay: Test A: Asian soybean rust control on soybean seedlings; settings: for Test A disease control rating / pest or weed control at 250 ppm: 250 ppm, soybean seedlings, 100 = 100% disease control, 0 = no control; for pest or weed control at 250 ppm: Phakopsora pachyrhizi, read-out: Test A disease control rating
[1] = tested on: Puccinia recondita f. sp. tritici; assay: Test B: wheat leaf rust control on wheat seedlings; settings: for Test B disease control rating / pest or weed control at 250 ppm: 250 ppm, wheat seedlings, 100 = 100% disease control, 0 = no control; for pest or weed control at 250 ppm: Puccinia recondita, read-out: Test B disease control rating
Phytophthora infestans = assay: whole plant or invertebrate; settings: tomato seedlings; for Test F disease control rating: 250 ppm; for Test F disease control rating / pest or weed control at 250 ppm: 100 = 100% disease control, 0 = no control; for pest or weed control at 250 ppm: Phytophthora infestans, in Solanum lycopersicum, read-out: Test F disease control rating, 250 ppm
Zymoseptoria tritici = assay: Test C: wheat leaf blotch control on wheat seedlings; settings: for Test C disease control rating / pest or weed control at 250 ppm: 250 ppm, wheat seedlings, 100 = 100% disease control, 0 = no control; for pest or weed control at 250 ppm: Zymoseptoria tritici, read-out: Test C disease control rating
Botrytis cinerea = assay: Test E: tomato Botrytis control on tomato seedlings; settings: for Test E disease control rating / pest or weed control at 250 ppm: 250 ppm, 100 = 100% disease control, 0 = no control; for pest or weed control at 250 ppm: Botrytis cinerea, read-out: Test E disease control rating
Plasmopara viticola = assay: Test D: grape downy mildew control on grape seedlings; settings: for Test D disease control rating / pest or weed control at 250 ppm: 250 ppm, 100 = 100% disease control, 0 = no control; for pest or weed control at 250 ppm: Plasmopara viticola, read-out: Test D disease control rating
[2] = tested on: Erysiphe graminis f. sp. tritici; assay: Test G: wheat powdery mildew control on wheat seedlings; settings: for Test G disease control rating / pest or weed control at 250 ppm: 250 ppm, 100 = 100% disease control, 0 = no control; for pest or weed control at 250 ppm: Blumeria graminis, read-out: Test G disease control rating
[3] = rate 250 ppm, relative to the controls

Row | SMILES | Test A disease control rating (Phakopsora pachyrhizi) | Test B disease control rating [1] | Test F disease control rating (Phytophthora infestans) | Test C disease control rating (Zymoseptoria tritici) | Test E disease control rating (Botrytis cinerea) | Test D disease control rating (Plasmopara viticola) | Test G disease control rating [2] | also measured
1 | CCC(OC(=O)[C@H](C)NC(=O)c1nccc(OC)c1OC(C)=O)C1CCCCC1 (single isomer, unassigned) [Compound 169] | 100% | 41% | 0% | 83% | 0% | 17% | 35% | –
2 | COc1ccnc(C(=O)NC(C)C(=O)OC(C)c2ccc(F)cc2Cc2ccccc2)c1O (mixture of isomers) [Compound 12] | 99% | 97% | 0% | 0% | 0% | 83% | 0% | –
3 | COc1ccnc(C(=O)NC(C)C(=O)OC(C)C2CCC(C(C)(C)C)CC2)c1O (mixture of isomers) [Compound 176] | 99% | 89% | 0% | 57% | 0% | 14% | 0% | –
4 | COc1ccnc(C(=O)NC(C)C(=O)OC(C)C2Cc3ccccc3O2)c1OC(C)=O (mixture of isomers) [Compound 186] | 94% | 100% | 0% | 83% | 0% | 14% | 0% | –
5 | COc1ccnc(C(=O)NC(C)C(=O)OC(C)c2ccc(Br)s2)c1OC(C)=O (mixture of isomers) [Compound 67] | 13% | 55% | 0% | 36% | 0% | 53% | 0% | –
6 | COc1ccnc(C(=O)N[C@@H](C)C(=O)OC(C)C2CCC(c3ccccc3)CC2)c1OC(C)=O (mixture of isomers) [Compound 104, N-[[3-(acetyloxy)-4-methoxy-2-pyridinyl]carbonyl]-L-alanine 1-(4-phenylcyclohexyl)ethyl ester] | – | – | – | – | – | – | – | pest or weed control at 250 ppm (Phakopsora pachyrhizi): 100%; pest or weed control at 250 ppm [1]: 100%; pest or weed control at 250 ppm (Phytophthora infestans): 0%; pest or weed control at 250 ppm (Zymoseptoria tritici): 93%; pest or weed control at 250 ppm (Botrytis cinerea): 0%; pest or weed control at 250 ppm (Plasmopara viticola): 65%; pest or weed control at 250 ppm [2]: 0%
7 | COc1ccnc(C(=O)NC(C)C(=O)OC(C)c2ccc([N+](=O)[O-])cc2)c1OC(C)=O (mixture of isomers) [Compound 20] | 0% | 68% | 0% | 64% | 0% | 4% | 0% | –
8 | COc1ccnc(C(=O)NC(C)C(=O)OC(C)c2ccc(C(F)(F)F)cc2)c1OC(C)=O (mixture of isomers) [Compound 35] | 100% | 100% | 0% | 80% | 0% | 68% | 0% | –
9 | COc1ccnc(C(=O)NC(C)C(=O)OC(C)c2ccccc2[N+](=O)[O-])c1O (mixture of isomers) [Compound 16] | 13% | 0% | 0% | 76% | 0% | 59% | 0% | –
10 | COc1ccnc(C(=O)NC(C)C(=O)OC(C)c2cccc3ccccc23)c1O (centres unmarked) [Compound 113] | – | 0% | – | 42% | – | 94% | – | pest or weed control at 250 ppm (Phakopsora pachyrhizi): 90%; pest or weed control at 250 ppm (Phytophthora infestans): 0%; pest or weed control at 250 ppm (Botrytis cinerea): 0%; pest or weed control at 250 ppm [2]: 0%
11 | COc1cccc(C(=O)NC(C)C(=O)OC(C)c2ccccc2Cc2ccccc2)c1O (centres unmarked) [Compound 6] | – | – | 0% | – | – | 28% | – | pest or weed control at 250 ppm (Phakopsora pachyrhizi): 0%; pest or weed control at 250 ppm [1]: 0%; pest or weed control at 250 ppm (Zymoseptoria tritici): 0%; pest or weed control at 250 ppm (Botrytis cinerea): 0%; pest or weed control at 250 ppm [2]: 0%
12 | CCC(OC(=O)[C@H](C)NC(=O)c1nccc(OC)c1OCOC(C)=O)C1CCCCC1 (single isomer, unassigned) [Compound 190] | – | – | – | – | – | – | – | Test A disease control rating (100 = 100% disease control, 0 = no disease control) (Phakopsora pachyrhizi; [3]): 100%; Test B disease control rating (100 = 100% disease control, 0 = no disease control) [1, 3]: 74%; Test F disease control rating (100 = 100% disease control, 0 = no disease control) (Phytophthora infestans; [3]): 0%; Test C disease control rating (100 = 100% disease control, 0 = no disease control) (Zymoseptoria tritici; [3]): 46%; Test E disease control rating (100 = 100% disease control, 0 = no disease control) (Botrytis cinerea; [3]): 0%; Test D disease control rating (100 = 100% disease control, 0 = no disease control) (Plasmopara viticola; [3]): 43%; Test G disease control rating (100 = 100% disease control, 0 = no disease control) [2, 3]: 0%
13 | CCC(OC(=O)[C@H](C)NC(=O)c1nccc(OC)c1OC(C)=O)c1ccc(C2CCCCC2)cc1 (mixture of isomers) [Compound 100, N-[[3-(acetyloxy)-4-methoxy-2-pyridinyl]carbonyl]-L-alanine 1-(4-cyclohexylphenyl)propyl ester] | – | – | – | – | – | – | – | pest or weed control at 250 ppm (Phakopsora pachyrhizi): 100%; pest or weed control at 250 ppm [1]: 99%; pest or weed control at 250 ppm (Phytophthora infestans): 0%; pest or weed control at 250 ppm (Zymoseptoria tritici): 88%; pest or weed control at 250 ppm (Botrytis cinerea): 0%; pest or weed control at 250 ppm (Plasmopara viticola): 32%; pest or weed control at 250 ppm [2]: 0%
14 | COc1ccnc(C(=O)N[C@@H](C)C(=O)OC(C)c2ccccc2Cc2ccc(F)cc2)c1OC(C)=O (single isomer, unassigned) [Compound 11] | 0% | 19% | 0% | 13% | 0% | 30% | 0% | –
15 | COc1ccnc(C(=O)NC(C)C(=O)OC(C)c2ccc(F)cc2Oc2ccccc2)c1O (mixture of isomers) [Compound 81] | 93% | 68% | 0% | 78% | 0% | 53% | 0% | –
16 | CCOC(=O)c1ccn(-c2ccc(C(C)OC(=O)C(C)NC(=O)c3nccc(OC)c3OC(C)=O)cc2)n1 (mixture of isomers) [Compound 48] | 55% | 55% | 0% | 8% | 0% | 4% | 0% | –
17 | COc1ccnc(C(=O)NC(C)C(=O)OC(C)c2ccccc2-n2ccc(C(F)(F)F)n2)c1OC(C)=O (mixture of isomers) [Compound 25] | 97% | 0% | 0% | 17% | 0% | 41% | 0% | –
